Experimental data reported in ChEMBL document CHEMBL1126890, “A tight binding inhibitor of 5-aminoimidazole ribonucleotide carboxylase” (J Med Chem, 1993).

What was measured:
Parameters in all cases: species or system Aves
[1] = Kobs versus inhibitory concentration
[2] = Inhibition of Avian AIR carboxylase in presence of 0.5 nM of the compound
[3] = Changes in free energy concentration

Ki [1]: 1.4 nM
Ki [2]: 1.3 nM
Ki [3]: 1.6 nM
SMILES: Nc1c([N+](=O)[O-])ncn1[C@@H]1O[C@H](COP(=O)(O)O)[C@@H](O)[C@H]1O
